In patent US11806354B2 (priority 2017, dated 2023):
Where two headings read alike, the source gives them in different places. Values belong to the compound of their own block, whether it stands above or below them.

What was measured:
[1] = Dissolution testing of monolayer meloxicam/rizatriptan tablet in acidic medium (Example 4); assay type: physicochemical; conditions: 0.01 N HCl
From the text: The inclusion complex was the same as the inclusion complex of Example 3.

[2] = human beings, 15 mg intramuscular dose; cited from earlier work
[3] = Procedure: The effect of varying amounts of potassium carbonate (K2CO3) and sodium bicarbonate (NaHCO3) on the pH of acidic media was tested. The acidic media was chosen to simulate gastric conditions. K2CO3 or NaHCO3 was added to 50 mL of a 0.01 N HCl solution (pH 2). The pH of the solution was measured after addition of the K2CO3 or NaHCO3. Deionized water (240 mL) was then added to the mixture and pH was measured again.
migraine patients = test: Phase 3 placebo- and active-controlled trial, acute treatment of moderate and severe migraine (Example 11); assay type: in vivo, human
[4] = monolayer tablet of Example 4, 0 min, 75 RPM, 37° C
[5] = monolayer tablet of Example 4, 15 min
[6] = monolayer tablet of Example 4, 30 min
[7] = monolayer tablet of Example 4, 45 min
[8] = monolayer tablet of Example 4, 60 min
[9] = monolayer tablet of Example 4, 90 min
[10] = monolayer tablet of Example 4, 120 min

- percent dissolved [1, 4]: 0%
- percent dissolved [1, 5]: 79%
- percent dissolved [1, 6]: 92%
- percent dissolved [1, 7]: 93%
- percent dissolved [1, 8]: 93%
- percent dissolved [1, 9]: 93%
- percent dissolved [1, 10]: 94%
Compound: Cc1cnc(NC(=O)C2=C(O)c3ccccc3S(=O)(=O)N2C)s1 [Meloxicam]
- AUC0-24 of meloxicam [2]: about 27 μg·hr/mL

- pH ([3]; 300 mg added to 50 mL 0.01 N HCl): 5.90
- pH ([3]; 750 mg added to 50 mL 0.01 N HCl): 8.30
- pH ([3]; 1000 mg, 0.01 N HCl + 240 mL water): 8.60
Compound: O=C([O-])O.[Na+] [NaHCO3, sodium bicarbonate]

- percent dissolved [1, 4]: 0%
- percent dissolved [1, 5]: 89%
- percent dissolved [1, 6]: 102%
- percent dissolved [1, 7]: 103%
- percent dissolved [1, 8]: 103%
- percent dissolved [1, 9]: 103%
- percent dissolved [1, 10]: 103%
- Dizziness, % of subjects (migraine patients; in vivo): 2.1%
- Dizziness, number of subjects (migraine patients; in vivo): 9
- Nausea, % of subjects (migraine patients; in vivo): 4.8%
- Nausea, number of subjects (migraine patients; in vivo): 21
- Somnolence, % of subjects (migraine patients; in vivo): 2.1%
- Somnolence, number of subjects (migraine patients; in vivo): 9
Compound: CN(C)CCc1c[nH]c2ccc(Cn3cncn3)cc12 [Rizatriptan]
- patients experiencing relapse of pain (migraine patients; 48-hour period after dosing): 45.2%
- percentage of patients with sustained pain freedom (migraine patients; 2 hours to 48 hours): 8.8%
- probability of experiencing pain relief (migraine patients; 24 hours after taking): approximately 60%
- Any Treatment-Emergent Adverse Event, number of subjects (migraine patients; in vivo): 67
- median time to pain relief (migraine patients; in vivo): 4 h
